Columns and labels:
[1] = test system: CTL epitope-specific CD8^+ T cells; parameters: species or system BALB/c mice; conditions: mouse, in vivo
PBMC = PBMC proliferation induced by Th epitope P25; format: cell-based, human
Text: Preferably, the Th cell epitope is P25, KLIPNASLIENCTKAEL (SEQ ID No:8), from the F protein of morbillivirus (Ghosh et al, 2001). This epitope is promiscuous in all outbred dogs that have been studied by the inventors so far and also in all strains of mice and cattle examined (unpublished results). This epitope is also able to induce PBMC proliferation in at least 50% of blood samples extracted from human volunteers. The F protein is conserved across most morbilliviruses and in the case of P25 is conserved in canine distemper virus, rhinderpest and measles viruses.

Substance	antigen-specific CD8+ T cell responses compared with non-lipidated peptide [1]	antigen-specific CD8+ T cells in lung and spleen compared with non-lipidated peptide [1]	blood samples from human volunteers in which PBMC proliferation is induced (PBMC)
GALNNRFQIKGVELKS-K(Pam2CSS)-TYQRTRALV [lipopeptide]	not enhanced	more antigen-specific CD8^+ T cells	
KLIPNASLIENCTKAEL (Morbillivirus) [P25]			at least 50%

From patent US20100143405A1, “Immunotherapy of virus infection” (priority 2004, published 2010)
